Test results as given in ChEMBL document CHEMBL1240362, “Intrapulmonary pharmacokinetics of S-013420, a novel bicyclolide antibacterial, in healthy Japanese subjects” (Antimicrob Agents Chemother, 2010).
Converted amounts (≈) assume the structure as drawn.

Tests used:
Type in all cases: functional
Streptococcus pneumoniae = assay: Antimicrobial activity against Streptococcus pneumoniae
Staphylococcus aureus = assay: Antimicrobial activity against methicillin susceptible Staphylococcus aureus
Streptococcus pyogenes = assay: Antimicrobial activity against Streptococcus pyogenes
Haemophilus influenzae = assay: Antimicrobial activity against Haemophilus influenzae

MIC90 (Streptococcus pneumoniae) [µg/mL]	MIC90 (Staphylococcus aureus) [µg/mL]	MIC90 (Streptococcus pyogenes) [µg/mL]	MIC90 (Streptococcus pneumoniae; Streptococcus pneumoniae, read-out: MIC90) [µg/mL]	SMILES	MIC90 (Haemophilus influenzae) [µg/mL]
1 (≈ 1.34 µM)	1 (≈ 1.34 µM)	1 (≈ 1.34 µM)	–	CC[C@H]1OC(=O)[C@H](C)[C@@H](O[C@H]2C[C@@](C)(OC)[C@@H](O)[C@H](C)O2)[C@H](C)[C@@H](O[C@@H]2O[C@H](C)C[C@H](N(C)C)[C@H]2O)[C@](C)(O)C[C@@H](C)CN(C)[C@H](C)[C@@H](O)[C@]1(C)O [AZITHROMYCIN]	–
–	–	–	–	CC[C@H]1OC(=O)[C@H](C)C(=O)[C@H](C)[C@@H](O[C@@H]2O[C@H](C)C[C@H](N(C)C)[C@H]2O)[C@](C)(OC)C[C@@H](C)C(=O)[C@H](C)[C@H]2N(CCCCn3cnc(-c4cccnc4)c3)C(=O)O[C@]12C [TELITHROMYCIN]	4 (≈ 4.93 µM)
–	1 (≈ 1.34 µM)	1 (≈ 1.34 µM)	1 (≈ 1.34 µM)	CC[C@H]1OC(=O)[C@H](C)[C@@H](O[C@H]2C[C@@](C)(OC)[C@@H](O)[C@H](C)O2)[C@H](C)[C@@H](O[C@@H]2O[C@H](C)C[C@H](N(C)C)[C@H]2O)[C@](C)(OC)C[C@@H](C)C(=O)[C@H](C)[C@@H](O)[C@]1(C)O [CLARITHROMYCIN]	–
